According to US20110100079A1, “METHOD FOR IMPARTING STRESS TOLERANCE TO PLANT” (priority 2007, published 2011):

What was measured:
Format in all cases: in vivo
“Momotaro” tomato [1] = experiment: Example 2 temperature stress tolerance imparting test (tomato); details: 32° C., leaf, 2 weeks
Protocol: Other cultivation conditions were the same as the conditions of the temperature stress test. […] (2) Solution culture medium: […] Method of Temperature Stress Tolerance Imparting Test The temperature in a climatic chamber was controlled so as to be 10, 15, or 32° C. The environmental conditions were controlled so as to have an illuminance by a fluorescent light of 5000 Lux and a daily light-dark cycle of a 16-hour light period and a 8-hour dark period. In this test, a temperature of 23° C. at which the optimum growth was observed was regarded as a reference temperature (temperature stress-free test condition), and a stress was imposed by applying a temperature higher or lower than the reference temperature. A tomato as prepared above was planted in a 250 ml polyethylene bottle filled with the solution culture medium (½ Otsuka A formulation). A treatment solution as presented in Table 1 was sprayed onto the leaves or applied to the underground portion. […] Ten specimens were prepared for each of the test plot and the control plots, and a plant stress level and an extent of imparting plant stress tolerance were calculated according to Formula (ii) and (iii) above using as a fresh plant body weight the average of the fresh plant body weights of each specimen 2 weeks after the beginning of the test.

potato = experiment: Example 9 drying stress test (potato), soil culture; details: 23° C., leaf, 100 ppm, 2 weeks; for Fresh weight, relative value (untreated plot = 100), Test 1 / Fresh weight, relative value (untreated plot = 100), Test 4 / Fresh weight, relative value (untreated plot = 100), Test 2 / Fresh weight, relative value (untreated plot = 100), Test 3: potato soil culture; for Fresh weight, relative value (untreated plot = 100), Test 1: EC 1, pF 2.8, two-leaf stage; for Fresh weight, relative value (untreated plot = 100), Test 4: EC 1, pF 3.5, five-leaf stage; for Fresh weight, relative value (untreated plot = 100), Test 2: EC 1, pF 3.5, two-leaf stage; for Fresh weight, relative value (untreated plot = 100), Test 3: EC 1, pF 4.1, two-leaf stage; for Fresh weight, relative value (untreated plot = 100), Comparison 1: stress-free: potato soil culture, EC 1, pF 1.7, two-leaf stage
Protocol: The environmental conditions in a climatic chamber were controlled so as to have a temperature of 23° C., an illuminance by a fluorescent light of 5000 Lux, and a daily light-dark cycle of a 16-hour light period and an 8-hour dark period. Potatoes as prepared above were transplanted in size-5 (15 cm) pots. During the test period, the pF value was controlled by adding a suitable amount of tap water once a day so as to attain a specific drying stress value. A treatment solution containing a compound of Table 5 in a specific concentration (the remainder was water) was prepared and sprayed onto the leaves or applied to the underground portions. […] A comparative example was constructed to reflect the drying stress-free optimum cultivation conditions to investigate the plant energizing ability. […] Moreover, when the products of the present invention and the comparative products were compared, the stress tolerance imparting ability of the products of the present invention was higher in respective drying stress conditions.

“Momotaro” tomato [2] = experiment: Example 3 drying stress tolerance imparting test (tomato); details: pF 2.3, leaf, 3 weeks
Protocol: Other cultivation conditions were as with the conditions of the drying stress test. Drying stress conditions: soil pF value: 2.3, 2.5, or 2.9, cultivation temperature: 23° C., relative humidity: 50%, illuminance: 5000 Lux (fluorescent light), light/dark cycle: 16 hours/8 hours (2) Cultivation period: 3 weeks (3) Soil: Kureha gardening soil manufactured by Kureha Corporation (fertilizer components: N:P:K=0.4:1.9:0.6 g/kg soil) (4) Plant preparation: A 50-cell tray was filled with Kureha gardening soil manufactured by Kureha Corporation (fertilizer components: N:P:K=0.4:1.9:0.6 g/kg soil), and seeds of a “Momotaro” tomato were sowed, thinly covered with Kureha gardening soil, and sufficiently watered to allow the seeds to sprout. When the leaves in the 2-leaf stage fully unfolded, the soil on the tomato roots was carefully washed away with running water, and a test was performed. (5) The chemicals used and the amount of a treatment solution applied were as in Example 1. (6) Amount of treatment solution applied: 10 ml/specimen for leaf spraying, 50 ml/specimen for fertigation Method of Drying Stress Tolerance Imparting Test Five tomato specimens as prepared above were planted in a 60-cm planter placed on a plant culture rack in an air-conditioned room. […] From immediately after planting the tomatoes, a treatment solution of Table 1 was sprayed onto the leaves or applied to the underground portions once a week. […] Five specimens (per planter) were prepared for each of the test plot and the control plots, plant bodies were collected 3 weeks after the beginning of the test such that the roots were not cut, the soil was washed away with running water, the fresh plant body-weights were measured, and a plant stress level and an extent of imparting plant stress tolerance were calculated according to Formula (ii) and (iii) above using the average of the weights.

tomato = experiment: Example 8 temperature stress test (tomato), soil culture; details: leaf, 100 ppm, 2 weeks; for Fresh weight, relative value (untreated plot = 100), Comparison 1: stress-free: tomato soil culture, cultivation temperature 23, EC 1, pF 1.7, two-leaf stage; for Fresh weight, relative value (untreated plot = 100), Test 1 / Fresh weight, relative value (untreated plot = 100), Test 2 / Fresh weight, relative value (untreated plot = 100), Test 3 / Fresh weight, relative value (untreated plot = 100), Test 4: tomato soil culture; for Fresh weight, relative value (untreated plot = 100), Test 1: cultivation temperature 10, EC 1, pF 1.7, two-leaf stage; for Fresh weight, relative value (untreated plot = 100), Test 2: cultivation temperature 16, EC 1, pF 1.7, two-leaf stage; for Fresh weight, relative value (untreated plot = 100), Test 3: cultivation temperature 29, EC 1, pF 1.7, two-leaf stage; for Fresh weight, relative value (untreated plot = 100), Test 4: cultivation temperature 35, EC 1, pF 1.7, two-leaf stage
Protocol: Other Conditions were as in Example 5. The environmental conditions in a climatic chamber were controlled so as to have an illuminance by a fluorescent light of 5000 Lux, a daily light-dark cycle of a 16-hour light period and an 8-hour dark period, and various temperatures. Tomatoes as prepared above were transplanted in size-3 (9 cm) pots. A treatment solution containing a compound of Table 1 in a specific concentration (the remainder was water) was prepared and sprayed onto the leaves or applied to the underground portions. […] A comparative example was constructed to reflect the temperature stress-free optimum cultivation conditions to investigate the plant energizing ability. […] Moreover, when the products of the present invention and the comparative products were compared, the stress tolerance imparting ability of the products of the present invention was higher in respective temperature stress conditions.

Molecule	Extent of imparting plant stress tolerance (“Momotaro” tomato [1]; 100 ppm)	Fresh weight, relative value (untreated plot = 100), Test 1 (potato)	Fresh weight, relative value (untreated plot = 100), Test 4 (potato)	Fresh weight, relative value (untreated plot = 100), Test 2 (potato)	Fresh weight, relative value (untreated plot = 100), Test 3 (potato)	Fresh weight, relative value (untreated plot = 100), Comparison 1 (potato)	Extent of imparting plant stress tolerance (“Momotaro” tomato [2]; 100 ppm once a week)	Fresh weight, relative value (untreated plot = 100), Comparison 1 (tomato)	Fresh weight, relative value (untreated plot = 100), Test 1 (tomato)	Fresh weight, relative value (untreated plot = 100), Test 2 (tomato)	Fresh weight, relative value (untreated plot = 100), Test 3 (tomato)	Fresh weight, relative value (untreated plot = 100), Test 4 (tomato)	Extent of imparting plant stress tolerance (“Momotaro” tomato [1]; 200 ppm)	Extent of imparting plant stress tolerance (“Momotaro” tomato [2]; 200 ppm once a week)
OC[C@H]1O[C@H](OC[C@H]2O[C@H](O[C@]3(CO)O[C@H](CO)[C@@H](O)[C@@H]3O)[C@H](O)[C@@H](O)[C@@H]2O)[C@H](O)[C@@H](O)[C@H]1O [Comparative product 4, Raffinose, reference compound]	103%	103	101	103	103	102	102%	102	100	100	101	101	–	–
Alkyl (C10) polyglycoside [Product of present invention 15]	115%	121	134	142	121	102	117%	102	116	119	136	126	115%	115%
POE (20) sorbitan monolauric acid ester [Product of present invention 12]	117%	128	145	143	129	101	115%	102	124	126	144	132	121%	118%
Sucrose fatty acid ester (C18, HLB = 15) [Product of present invention 20]	115%	118	128	135	118	102	117%	102	114	116	133	122	–	–
C[N+](C)(C)CC(=O)[O-] [Comparative product 3, Glycine betaine, reference compound]	102%	102	101	102	102	102	103%	102	100	100	101	101	–	–
